These results are taken from PubChem BioAssay (NCI).

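Tested at 5 concentrations; 48 h exposure; 96-well plates; endpoints linearly interpolated, else capped at highest concentration. At the TGI there is no net growth.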 *1 amine or outer side, *2 acyl side, *3 side chain or, on linkers, in order; H or OH if unused. Where a SMILES comes first, the peptide text is derived from it. Bridges are numbered along the chain shown (N, C = ends). [ ]: non-standard residue; d: D form. ξ: configuration not given here. X35 = CC[C@H](C)[C@@H](N[*:1])[C@@H](O)CC(=O)O[C@H](C(=O)[C@H](C)C(=O)[*:2])C(C)C; NMeY = CN[C@@H](Cc1ccc(O)cc1)C(=O)O; dNMeL = CN[C@H](CC(C)C)C(=O)O; ξΔPro = O=C(O)C1C=CCN1

Common to all, as to assay: NCI tumour cell line growth inhibition, 48 h
Assay [1] concerns COLO 205 colon.
In assay [2] the test system is NCI/ADR-RES ovarian.
The subject of assay [3] is CAKI-1 renal.
The subject of assay [4] is SR leukemia.
Assay [5] deals with UACC-62 melanoma.
For assay [6], the system named is NCI-H226 lung.
For assay [7], the system named is 786-0 renal.
The subject of assay [8] is UO-31 renal.
Assay [9] deals with NCI-H522 lung.
Assay [10] relates to SK-MEL-5 melanoma.

`O=C(O)CCSC1=NCCN1`: the TGI in assay [1], in assay [2], in assay [3], in [4], in assay [5] and in assay [6] was over 100 µM throughout. For the same compound, the TGI in assay [7], in assay [8], in [9] and in assay [10] was over 100 µM throughout.

For `C[C@]12CC[C@H]3[C@@H](CCC4=C(Br)C(=O)C=C[C@@]43O)[C@@H]1CCC2=O`, the TGI in [1] is over 100 µM; in assay [2] it was over 100 µM; in [3] it was over 100 µM; in [4] it was 58.8 µM; in [5], over 100 µM; in assay [6], over 100 µM. Further, the TGI is 81.2 µM in assay [7], over 100 µM in [8], 38.1 µM in assay [9] and over 100 µM in assay [10].

Take `Cc1ccc(NC2=N/C(=C/c3ccco3)C(Cl)=N2)cc1`: the TGI in [1], in assay [2], in assay [3], in assay [4], in assay [5] and in assay [6] was over 100 µM throughout. In addition, the TGI in assay [7], in [8], in assay [9] and in [10] was over 100 µM throughout.

Turning to `CNC(=O)N(CCC#N)CCCN(C(=O)N(C)C)c1ccccc1`, the TGI in assay [1], in assay [2], in assay [3], in [4], in assay [5] and in assay [6] was over 100 µM throughout. The TGI in [7], in assay [8], in assay [9] and in [10] was over 100 µM in each case.

As to `COC(=O)c1cc(C)ccc1/C=C1\Cc2c(C)cc(C)cc2C1=O`, the TGI in assay [1] is over 100 µM; in assay [2] it was over 100 µM; in assay [3], over 89.1 µM; in [4], over 100 µM; in [5], 65.1 µM; in assay [6], over 82.7 µM. The TGI is 40.6 µM in assay [7], over 85.8 µM in assay [8], over 100 µM in assay [9] and over 100 µM in [10].

`COc1ccc2c(c1)C(=O)C1CCC(=O)N1C2c1ccc2c(c1)OCO2` (stereo not given): the TGI in [1] was 25.7 µM; in assay [2], over 100 µM; in assay [3] it was 71.8 µM; in [4], over 100 µM; in [5] it was 29.9 µM; in assay [6], 30.3 µM. Moreover, the TGI in [7] was found to be 78.2 µM; in assay [8] it was 22.4 µM; in assay [9], 21.6 µM; in assay [10], 24.9 µM.

For `COc1cc2c(c(OC)c1)C(=O)O[C@H](C)CCCC/C=C/C2`, the TGI in [1] was 31.8 µM; in assay [2], over 77.2 µM; in assay [3], 26.4 µM; in [4], over 100 µM; in assay [5] it was over 58 µM; in assay [6], over 95.8 µM. The TGI in assay [7] was 27.5 µM; in assay [8] it was over 30.8 µM; in [9], 24 µM; in assay [10], 11.2 µM.

As for `COc1ccc(OC)c(C[P+](c2ccccc2)(c2ccccc2)c2ccccc2)c1`, the TGI in assay [1] is 2.76 µM; in assay [2], over 100 µM; in assay [3], 56 µM; in assay [4], 6.07 µM; in assay [5] it was 12.8 µM; in [6], over 61.4 µM. Further, the TGI in assay [7] is over 100 µM; in assay [8], 79.4 µM; in [9], over 39.4 µM; in assay [10] it was 3.32 µM.

Consider `CC[C@H](C)[C@H]1NC(=O)[C@@H](NC(=O)[C@@H](CC(C)C)N(C)C(=O)C2C=CCN2)[C@@H](C)OC(=O)[C@H](Cc2ccc(OC)cc2)N(C)C(=O)[C@@H]2CCCN2C(=O)[C@H](CC(C)C)NC(=O)[C@@H](C)C(=O)[C@H](C(C)C)OC(=O)C[C@@H]1O` (stereo not given in full) (H-[ξΔPro][dNMeL]T[X35]LP[NMeY](Me); ester 3-C), for which the TGI in [1] was 9.32 µM; in [2], 0.52 µM; in assay [3], 0.378 µM; in assay [4] it was 2.54 µM; in assay [5] it was 0.00602 µM; in [6], under 0.005 µM. In addition, the TGI in assay [7] was 0.0597 µM; in [8], 0.303 µM; in assay [9] it was under 0.005 µM; in assay [10], 0.0756 µM.

Take `Nn1c(Sc2nc3ccccc3c(=O)n2N)nc2ccccc2c1=O`: the TGI in assay [1] was 28.8 µM; in assay [2], 28.4 µM; in [3], 20.3 µM; in assay [4], 5.1 µM; in [5] it was 25.6 µM; in assay [6] it was 5.5 µM. The TGI in assay [7] was found to be 18.6 µM; in [8], 3.26 µM; in assay [9], 3.57 µM; in [10], 11.5 µM.

Turning to `Cc1nc(Nc2nc3ccccc3[nH]2)nc(Cl)c1CCCl`, the TGI in assay [1], in assay [2], in assay [3], in assay [4], in assay [5] and in assay [6] was over 100 µM each time. For the same compound, the TGI in assay [7], in assay [8], in [9] and in assay [10] was over 100 µM throughout.

Take `Clc1nc2c(C#Cc3ccccc3)ncnc2n1C1CCCCO1` (stereo not given): the TGI in assay [1] was 32.7 µM; in assay [2] it was over 100 µM; in [3], 28.1 µM; in [4], 24.1 µM; in [5] it was 27 µM; in assay [6], over 100 µM. In addition, the TGI in [7] was determined as 25.3 µM; in assay [8], 25.1 µM; in assay [9] it was 25.1 µM; in [10], 24.8 µM.

For `Cc1nc2cccc(F)c2c(=O)n1-c1nnc(C(F)(F)F)s1`, the TGI in assay [1], in [2], in [3], in assay [4], in [5] and in assay [6] was over 10 µM each time. The TGI in [7], in assay [8], in assay [9] and in assay [10] was over 10 µM throughout.

As to `Nc1ccc2c(c1)NC(=O)[C@@H]1CCCN1C2=O`, the TGI in [1], in assay [2], in assay [3], in assay [4], in assay [5] and in assay [6] was over 100 µM in each case. The TGI in assay [7], in [8], in assay [9] and in [10] was over 100 µM throughout.

On to `COc1cc(S(=O)(=O)Nc2ccc(-c3csc(/N=C\c4ccccc4)n3)cc2)ccc1Cl`, for which the TGI in [1], in [2], in assay [3], in [4], in assay [5] and in assay [6] was over 100 µM in each case. Besides, the TGI in assay [7], in assay [8], in assay [9] and in assay [10] was over 100 µM throughout.

Consider `COC(=O)[C@](C)(Cc1ccccc1)NC(=O)[C@@H](C)N1[C@@H](c2ccccc2)COC1(C)C`, for which the TGI in assay [1] is 52.2 µM; in assay [2] it was over 100 µM; in [3], over 100 µM; in assay [4], over 100 µM; in assay [5], over 100 µM; in assay [6], over 100 µM. The TGI in [7] is over 100 µM; in assay [8], over 100 µM; in assay [9], 99.3 µM; in assay [10] it was over 100 µM.

Consider `COC(=O)/C=C1\C(=O)C=C2[C@@H]3C[C@H]4C[C@H](CC[C@@]4(C)N21)C3(C)NC(C)=O` (stereo not given in full), for which the TGI is over 36.8 µM in assay [1]; over 77 µM in [2]; 26.3 µM in assay [3]; 99.7 µM in [4]; 35 µM in assay [5]; 55.1 µM in assay [6]. Also, the TGI in [7] was 14.3 µM; in assay [8] it was over 52.4 µM; in assay [9], 3.6 µM; in assay [10] it was over 60 µM.

Consider `CCN(CC)C1Oc2cc3c(cc2C(c2cc(OC)c(OC)c(OC)c2)C1C)OCO3` (stereo not given), for which the TGI in assay [1] was 4.8 µM; in [2], 0.771 µM; in assay [3], over 44.2 µM; in assay [4], 5.01 µM; in assay [5] it was 98.5 µM; in [6] it was 4.54 µM. Besides, the TGI in [7] is over 40.6 µM; in assay [8] it was over 46.7 µM; in assay [9], 6.01 µM; in [10], 6.68 µM.

Regarding `CC1=CC[C@](C)(O)[C@@]2(C)CC[C@H]3C(=C(C)C)C(=O)C[C@]3(C)C[C@H]12`, the TGI was over 50 µM in assay [1]; over 50 µM in assay [2]; over 50 µM in assay [3]; 40.6 µM in assay [4]; 47.1 µM in [5]; over 50 µM in [6]. In addition, the TGI in [7] was over 50 µM; in assay [8], over 50 µM; in assay [9], 31.5 µM; in assay [10], over 50 µM.
